Experiments:
Assay type in all cases: in vivo, rat
[1] = tested on: TNF-α receptor member 1a; assay: Brain gene expression (TLDA qPCR); settings: 15 wk diet; control diet = 1
Description: (§1) RNA was extracted from the flash-frozen half brains of the 15 week postweaning rats. The brain was briefly thawed and dissected to isolate the brainstem, cerebellum, cortex, hippocampus, striatum, and the rest of the brain. RNA was extracted from the brain regions using Trizol reagent (Ambion; Life Technologies, Burlington, ON, Canada) according to the manufacturer's protocol. […] Chloroform was added to the Trizol reagent at a ratio of 1:5 (chloroform:Trizol reagent) and the solution was mixed and incubated at room temperature. The solution was then centrifuged at 12,000 g for 15 min at 4°C. […] The samples were then centrifuged at 12,000 g for 10 min at 4°C to precipitate the RNA pellet. […] The pellet was allowed to air dry, and was then dissolved in RNase-free water. A Nanodrop 1000 (NanoDrop Technologies Inc., Wilmington, DE) was used to determine the concentration and purity of each sample by measuring absorbance at 260 and 280 nm. Each sample was aliquoted to make 1 μg of RNA per 10 μl of sample and stored at -80°C. A high-capacity cDNA reverse transcription kit (Applied Biosystems, Burlington, ON, Canada) was used to reverse transcribe 1 μg of RNA according to the manufacturer's instructions. Newly synthesized cDNA was stored at -20°C until the following day when it was loaded onto TaqMan low density array (TLDA) plates. Quantitative real-time PCR was performed using TLDA (Applied Biosystems) on the 7900HT real-time PCR system (Applied Biosystems). cDNA (50 ng) was diluted with water to make a volume of 50 μl and mixed with 50 μl of TaqMan Universal PCR Master Mix (Applied Biosystems). The mixture was then loaded onto a customized preconfigured 384-well TLDA plate according to the manufacturer's protocol. TaqMan gene expression assays were used to assess 21 genes that were previously reported to be differentially expressed with n-3 deprivation. […] All genes were normalized to phosphoglycerate kinase 1. Similar results were found when normalizing to β-actin or 18S rRNA.

[2] = tested on: 15-lipoxygenase; assay: Brain gene expression (TLDA qPCR); settings: 15 wk diet; control diet = 1
Description: as §1

[3] = tested on: α-synuclein; assay: Brain gene expression (TLDA qPCR); settings: 15 wk diet; control diet = 1
Description: as §1

[4] = tested on: vesicular monoamine transporter 2; assay: Brain gene expression (TLDA qPCR); settings: 15 wk diet; control diet = 1
Description: as §1

[5] = tested on: transthyretin; assay: Brain gene expression (TLDA qPCR); settings: 15 wk diet; control diet = 1
Description: as §1

[6] = Body weight and food intake, balance study; settings: 15 wk diet
Description: The remaining pups were weaned, singly housed, continued on the diet of their respective dam for 15 weeks, and were allocated to either the balance study (n = 11), the steady-state infusion study (n = 4), or the brain DHA uptake study (n = 3). For the balance study, the rats were weighed, food intake was determined, and uneaten food was replaced with fresh food on a weekly basis. Rats were euthanized by CO2 asphyxiation. Brains were removed and dissected sagittally. Carcasses and one half brain per rat were stored immediately at −80°C (to be later analyzed for lipid content). The other half brain was flash-frozen with 2-methylbutane on dry ice, and then stored at −80°C until analyzed for mRNA expression. The PUFA content in the brains and bodies of these rats after the 15 week feeding period was compared with the baseline PUFA content (described above) to determine PUFA accretion (equation 1, described below). For the steady-state infusion study and the brain DHA uptake study, a jugular vein catheter was surgically implanted into the rats. After allowing a 24 h recovery, rats were infused with ^2H14-ALA or ^14C-DHA, respectively (described below). The ^2H14-ALA infusion was used to determine DHA synthesis rates following a previously published method ([24]) and the ^14C-DHA infusion was utilized to measure the brain DHA uptake rate by following previously published methods ([26]).

| SMILES | Brainstem gene expression: TNFaR1a [1] | Cerebellum gene expression: TNFaR1a [1] | Cortex gene expression: TNFaR1a [1] | Hippocampus gene expression: TNFa R 1a [1] | Rest of brain gene expression: TNFaR1a [1] | Striatum gene expression: TNFaR1a [1] | Brainstem gene expression: 15 LOX [2] | Cerebellum gene expression: 15 LOX [2] | Cortex gene expression: 15 LOX [2] | Hippocampus gene expression: 15 LOX [2] | Rest of brain gene expression: 15 LOX [2] | Striatum gene expression: 15 LOX [2] | Brainstem gene expression: SNCa [3] | Cerebellum gene expression: SNCa [3] | Cortex gene expression: SNCa [3] | Hippocampus gene expression: SNCa [3] | Rest of brain gene expression: SNCa [3] | Striatum gene expression: SNCa [3] | Brainstem gene expression: VMAT2 [4] | Hippocampus gene expression: VMAT 2 [4] | also measured |
| --- | --- | --- | --- | --- | --- | --- | --- | --- | --- | --- | --- | --- | --- | --- | --- | --- | --- | --- | --- | --- | --- |
| CC/C=C\C/C=C\C/C=C\CCCCCCCC(=O)O [ALA, α-linolenic acid] | 1.30 RQ | 1.12 RQ | 1.11 RQ | 1.14 RQ | 0.95 RQ | 0.98 RQ | 0.91 RQ | 0.63 RQ | 0.77 RQ | 0.74 RQ | 0.62 RQ | 1.00 RQ | 0.95 RQ | 0.96 RQ | 1.08 RQ | 1.10 RQ | 0.97 RQ | 1.05 RQ | 1.34 RQ | 0.84 RQ | Rest of brain gene expression: VMAT2 [4]: 1.12 RQ; Brainstem gene expression: TTR [5]: 0.93 RQ; Cerebellum gene expression: TTR [5]: 1.75 RQ; Cortex gene expression: TTR [5]: 0.75 RQ; Hippocampus gene expression: TTR [5]: 6.67 RQ; Rest of brain gene expression: TTR [5]: 0.71 RQ; Striatum gene expression: TTR [5]: 2.37 RQ; Mean body weight at 15 weeks [6]: 673 ± 25 g |
| CC/C=C\C/C=C\C/C=C\C/C=C\C/C=C\C/C=C\CCC(=O)O [DHA, Docosahexaenoic acid] | 1.21 RQ | 0.96 RQ | 1.10 RQ | 0.99 RQ | 1.06 RQ | 0.88 RQ | 1.68 RQ | 1.35 RQ | 1.04 RQ | 0.96 RQ | 1.07 RQ | 1.46 RQ | 2.25 RQ | 0.84 RQ | 1.15 RQ | 1.19 RQ | 1.09 RQ | 0.97 RQ | 9.94 RQ | 1.26 RQ | Rest of brain gene expression: VMAT2 [4]: 1.08 RQ; Brainstem gene expression: TTR [5]: 0.46 RQ; Cerebellum gene expression: TTR [5]: 0.72 RQ; Cortex gene expression: TTR [5]: 1.49 RQ; Hippocampus gene expression: TTR [5]: 2.40 RQ; Rest of brain gene expression: TTR [5]: 1.08 RQ; Striatum gene expression: TTR [5]: 0.66 RQ; Mean body weight at 15 weeks [6]: 724 ± 18 g |
